Patent publication US20220378780A1, “PHARMACEUTICAL COMPOSITIONS COMPRISING POH DERIVATIVES” (NeOnc Technologies, Inc., priority 2019, published 2022)

Experiments:
[1] = tested on: c-myc, cyclin D1, activated caspase-3 and cleaved PARP-1 in MyLa cells; assay: Western blot of marker proteins with anti-oxidants or H2O2; assay type: cell-based, human; conditions: for effect of anti-oxidant on NEO212-induced marker changes: 200 and 500 μM AA or 100 and 300 μM b-ME before 80 μM NEO212, 48 hours
Excerpt: 2. Material and methods 2.1. […] 2.2. […] 2.3. […] 2.4.

[2] = tested on: subcutaneous U-87 gliomas; assay: Nude mouse subcutaneous glioma model, tumor growth inhibition; assay type: in vivo, nude mice; conditions: local application via Q-tip, 1 cc/application/day, 8 weeks; growth over 60 days
Description: Inhibition of tumor growth by butyryl-POH was studied in a nude mouse subcutaneous glioma model. Mice were injected with U-87 glioma cells (500,000 cells/injection) and allowed to form a palpable nodule over two weeks. Once palpable nodule was formed, the mice were treated with local application of various compounds as indicated in FIGS. 9A and 9B via a Q-tip (1 cc/application/day) over a period of 8 weeks.

[3] = tested on: TMZ sensitive (U251) cells; assay: Colony forming assay, TMZ sensitive U251; assay type: cell-based, human
Description: (§1) Colony forming assays were carried out after cells were treated with TMZ alone, POH alone, and the TMZ-POH conjugate. […] Cancer Lett. 2011 Mar. 28; 302(2):100-8.

[4] = tested on: TMZ resistant (U251TR) U251 cells; assay: Colony forming assay, TMZ resistant U251TR; assay type: cell-based, human
Description: as §1

[5] = tested on: USC-04 glioma cancer stem cells; assay: MTT cytotoxicity assay, USC-04; assay type: cell-based; conditions: USC-04; TMZ 0-400 uM, POH 0-2 mM
Excerpt: (§2) Cancer Lett. 2011 Mar. 28; 302(2):100-8.

[6] = tested on: USC-02 glioma cancer stem cells; assay: MTT cytotoxicity assay, USC-02; assay type: cell-based; conditions: USC-02; TMZ 0-400 uM, POH 0-2 mM
Excerpt: as §2

[7] = tested on: HUT102 cells; assay: MTT cell viability assay, HUT102 (Example 15); assay type: cell-based, human; conditions: HUT102, 72 hours
Excerpt: (§3) 2. Material and methods 2.1. […] 2.2. […] 2.3. […] 2.4. […] 2.5.

[8] = tested on: glioblastoma, breast cancer, or melanoma cell lines; conditions: various in vitro cytotoxicity assays; cited from earlier work
[9] = tested on: U87, A172 and U251 human glioma cells; assay: MTT cytotoxicity assay on human malignant glioma cells; assay type: cell-based
Excerpt: In vitro efficacy of the present composition can be determined using methods well known in the art. For example, the cytotoxicity of the present monoterpene (or sesquiterpene) and/or the therapeutic agents may be studied by MTT [3-(4,5-dimethylthiazol-2-yl)-2,5-diphenyl tetrazolium bromide] cytotoxicity assay. MTT assay is based on the principle of uptake of MTT, a tetrazolium salt, by metabolically active cells where it is metabolized into a blue colored formazon product, which can be read spectrometrically. J. of Immunological Methods 65: 55 63, 1983. The cytotoxicity of the present monoterpene (or sesquiterpene) derivative and/or the therapeutic agents may be studied by colony formation assay. Functional assays for inhibition of VEGF secretion and IL-8 secretion may be performed via ELISA. Cell cycle block by the present monoterpene (or sesquiterpene) derivative and/or the therapeutic agents may be studied by standard propidium iodide (PI) staining and flow cytometry. Invasion inhibition may be studied by Boyden chambers. In this assay a layer of reconstituted basement membrane, Matrigel, is coated onto chemotaxis filters and acts as a barrier to the migration of cells in the Boyden chambers. Only cells with invasive capacity can cross the Matrigel barrier. Other assays include, but are not limited to cell viability assays, apoptosis assays, and morphological assays.
Then U87, A172 and U251 cells were treated with dimethyl celecoxib bisPOH carbamate (POH-DMC) (e.g., synthesized by the method in Example 1), and the MTT cytotoxicity assays performed (FIG. 2).
Then TMZ-resistant glioma cell lines U87, A172 and U251 cells were treated with temozolomide POH carbamate (POH-TMZ) (e.g., synthesized by the method in Example 3).

[10] = tested on: A172 human glioma cells; assay: MTT assay, rolipram vs POH-Rolipram, A172; assay type: cell-based; conditions: A-172 cells, 48 hours
Description: (§4) To compare the cytotoxicity of Rolipram POH Carbamate (POH-Rolipram) (e.g., synthesized by the method in Example 5) with rolipram, a […] inducing differentiation and apoptosis in glioma cells, A172, U87, U251 and LN229 human glioma cells were treated with either POH-Rolipram or rolipram for 48 hours. […] In the presence of POH-rolipram, IC50 is achieved at concentrations as low as 50 uM. […] IC50 is not met at 1000 uM. […] POH-rolipram achieves IC50 at 50 uM, with almost 100% cytoxicity at 100 uM. […] On the other hand, IC50 for POH-rolipram is achieved at 100 uM, with almost 100% cytotoxicity at […].

[11] = tested on: U87 human glioma cells; assay: MTT assay, rolipram vs POH-Rolipram, U87; assay type: cell-based; conditions: U-87 cells, 48 hours
Description: as §4

[12] = tested on: U251 human glioma cells; assay: MTT assay, rolipram vs POH-Rolipram, U251; assay type: cell-based; conditions: for IC50: 48 hours, MTT
Description: as §4

[13] = tested on: LN229 human glioma cells; assay: MTT assay, rolipram vs POH-Rolipram, LN229; assay type: cell-based; conditions: for IC50: MTT
Description: as §4

[14] = tested on: HuT 78 cells; assay: MTT assay on HuT 78 cells (Example 14); conditions: HuT 78, 72 hours
Description: HuT 78 cells are cutaneous T lymphocytes derived from a patient with Sézary syndrome.
HuT 78 cells were treated in vitro with (i) temozolomide (50, 100, 250 μM), (ii) POH-TMZ conjugate (“NEO212”, 25, 50, 100 μM), (iii) NEO412 which is the triple conjugate of temozolomide (TMZ), perillyl alcohol (POH), and linoleic acid (25, 50, 100, 250 μM), or (iv) vehicle alone. Seventy-two hours after the addition of drugs or vehicle, cell viability was determined by standard MTT (methylthiazoletetrazolium) assay.

[15] = tested on: MyLa cells; assay: MTT cell viability assay, MyLa (Example 15); assay type: cell-based, human; conditions: Homo sapiens, 72 hours
Excerpt: as §3

[16] = tested on: HUT78 cells; assay: FACS analysis of cell death with 7-AAD; assay type: cell-based, human; conditions: HUT78, highest concentration 300, 72 hours
Excerpt: as §3

[17] = cancer patients; cited from earlier work
[18] = tested on: HUT78 cells; assay: MTT cell viability assay, HUT78 (Example 15)
Description: Pharmacological agents—NEO212 was dissolved in DMSO at 100 mM. TMZ was purchased from Sigma Aldrich (St. Louis, Mo.) and dissolved in DMSO (Santa Cruz Biotechnology, Dallas, Tex.) to a concentration of 50 mM. POH was purchased from Sigma-Aldrich and diluted in DMSO to 100 mM. […] Stock solutions of all drugs were stored at −20° C. Staurosporine (STSP) was purchased from Selleck Chemicals (Houston, Tex.), stored at 4° C. protected from light, and dissolved in DMSO before use. Ascorbic acid (AA) and beta-mercaptoethanol (b-ME) (Sigma Aldrich) were prepared fresh before use. Crystalline AA was dissolved in phosphate-buffered saline (PBS) to 25 mM; b-ME was diluted in medium to 25 mM. […] Cell lines—Three different human CTLC cell lines were used. […] Both media also contained 100 U/mL penicillin and 0.1 mg/mL streptomycin. Penicillin, streptomycin, and RPMI (prepared with raw materials from Cellgro/MediaTech, Manassas, Va.) were provided by the Cell Culture Core lab of the USC/Norris Comprehensive Cancer Center. […] Cells were kept in a humidified incubator at 37° C. and a 5% CO2 atmosphere. FBS was obtained from Omega Scientific (Tarzana, Calif.) and from X&Y Cell Culture (Kansas City, Mo.). […] MTT assay—Methylthiazoletetrazolium (MTT) assays were performed as follows. Cells were seeded into 96-well plates in a volume of 50 μL per well at 3.0-5.0×10^5 cells/mL. An additional 50 μL of medium containing various concentrations of drug (or vehicle) was added and the cells were incubated for different lengths of time. This was followed by the addition of 10 μL thiazolyl-blue tetrazolium (i.e., MTT; Sigma Aldrich) from a stock solution of 5 mg/mL in phosphate-buffered saline (PBS). Cells were returned to the incubator for 4 hours. Thereafter, the reaction was stopped and the cells were lysed by the addition of 100 μL solubilization solution (10% sodium dodecyl sulfate in 0.01 M hydrochloric acid). The 96-well plate was left in the cell culture incubator over night for complete solubilization of the MTT crystals, and the optical density (OD) of each well was determined the next day in an ELISA plate reader at 560 nm. The background value (=OD of control wells containing medium without cells+MTT+solubilization solution) was subtracted from all measured values. In individual experiments, each treatment condition was set up in quadruplicate, and each experiment was repeated several times independently. […] Cell proliferation analysis—Cell proliferation was assessed by counting cells over time. Independent cell cultures were exposed to different concentrations of NEO212. At different times, aliquots of cells were removed, mixed with Trypan blue, and counted in a hemocytometer. Blue cells were considered dead, whereas unstained cells were counted as live cells. […] Fluorescence-activated cell sorting (FACS) analysis—Cells were seeded in 6-well tissue culture plates at 2×10^5 cells/mL, followed by drug treatment. After 72 hours, cells were collected, washed twice with PBS, transferred to a microcentrifuge tube, and suspended in 200 μL of 1× binding buffer solution, which was made fresh from 10x binding buffer (0.2 μm sterile-filtered 0.1 M HEPES, pH 7.4; 1.4 M NaCl; 25 mM CaCl2)). Then 1 μL of a 1 mg/mL 7-amino-actinomycin D (7-AAD) solution (Thermo Fisher Scientific, Waltham, Mass.) was added. After 20 minutes of incubation on ice, cell fluorescence was analyzed on a FACSAria Flow Cytometer (Becton Dickinson Biosciences Ltd., Franklin Lakes, N.J.).

With `O=C1O[C@H]([C@@H](O)CO)C(O)=C1O` [AA, ascorbic acid] the “effect of anti-oxidant on NEO212-induced marker changes” value [1] was “prevented the anticancer impact of NEO212”.
For `C=C(C)C1CC=C(COC(=O)CCC)CC1` (stereo not shown) [Butyryl-POH], the “inhibition of tumor growth” value [2] was “greatest inhibition of tumor growth”.
With `OO` [H2O2, hydrogen peroxide] the “effect on proliferation and apoptosis markers” value ([1]; 200 μM H2O2, 48 hours) was “clear down-regulation of c-myc and cyclin D1 proteins, along with strong activation of caspase-3 and cleavage of PARP-1”.
With `C=C(C)[C@@H]1CC=C(CO)CC1` [POH, perillyl alcohol, reference compound] the “cytotoxicity in colony forming assay” value [3] was “demonstrated cytotoxicity”, the “cytotoxicity in colony forming assay” value [4] was “demonstrated cytotoxicity” and the “cytotoxicity in MTT assay” value [5] was “demonstrated cytotoxicity”. The “cytotoxicity in MTT assay” value [6] was “demonstrated cytotoxicity”, the “activity on viability in MTT assay” value ([7]; up to 300 μM) was “very minimal activity” and the IC50 [8] was 700 to 1800 µM.
With `C=C(C)C1CC=C(COC(=O)N(C(=O)OCC2=CCC(C(=C)C)CC2)S(=O)(=O)c2ccc(-n3nc(C(F)(F)F)cc3-c3cc(C)ccc3C)cc2)CC1` (stereo not shown) [POH-DMC] the “cytotoxicity in MTT assay” value [9] was “much better cytotoxicity than DMC alone”.
`C=C(C)C1CC=C(COC(=O)N2CC(c3ccc(OC)c(OC4CCCC4)c3)CC2=O)CC1` (stereo not shown) [POH-rolipram, 4-(3-cyclopentyloxy-4-methoxyphenyl)-2-oxo-pyrrolidine-1-carboxylic acid 4-isopropenyl cyclohex-1-enylmethyl ester] showed an IC50 [10] of 50 µM, an IC50 [11] of 180 µM and an IC50 ([12]; U251 cells) of 50 µM. The cytotoxicity ([12]; U251 cells, at 100 uM) was about 100%, the IC50 ([13]; 48 hours) was 100 µM and the cytotoxicity ([13]; at 10 uM) was about 100%.
In the case of `Cn1nnc2c(C(N)=O)ncn2c1=O` [TMZ, temozolomide, reference compound], the “cytotoxicity in MTT assay” value [9] is reported as “minimal cytotoxicity”, the “cytotoxicity in colony forming assay” value [3] is reported as “demonstrated cytotoxicity” and the “cytotoxicity in colony forming assay” value [4] is reported as “minimal cytotoxicity”. For the same compound, the “cytotoxicity in MTT assay” value [5] was “did not induce significant cytotoxicity”, the “cytotoxicity in MTT assay” value [6] was “did not induce significant cytotoxicity” and the “cytotoxic effect on MF cells in MTT assay” value [14] was “does not show much cytotoxicity”. The IC50 ([7]; Homo sapiens, HuT-102) was 6 to 8 µM, the IC50 [15] was over 300 µM and the cell death [16] was 26%. The peak plasma levels [17] was 50 to 70 µM, the reduction of viability ([18]; HUT78, 100 μM) was “about 30%” and the IC50 ([18]; HUT78, 72 hours) was over 300 µM.
For `OCCS` [b-ME, beta-mercaptoethanol], the “effect of anti-oxidant on NEO212-induced marker changes” value [1] was “prevented the anticancer impact of NEO212”.
`COc1ccc(C2CNC(=O)C2)cc1OC1CCCC1` (stereo not shown) [rolipram, reference compound] showed an IC50 ([10]; Homo sapiens) of about 1000 µM, an IC50 ([11]; Homo sapiens, U-87 MG) of over 1000 µM and an IC50 ([12]; Homo sapiens, U-251, U251 cells) of 170 µM. It also gave a plateau cytotoxicity ([12]; human, 48 h) of 60% and an IC50 ([13]; Homo sapiens, LN-229, 48 hours) of over 100 µM.
